Measured values taken from patent publication US20260070887A1 (Shenzhen Zhongge Biological Technology Co., Ltd., priority 2022, published 2026).
Where two headings read alike, the source gives them in different places.

What was measured:
[1] = test system: HT-29 cells; assay: HT-29 cell proliferation (Cell Titer-Glo, 6 days); type: cell-based; details: Homo sapiens, HT-29, 144 h
Experimental: The inhibitory effect on the KIF18A target by the compounds of the present disclosure was evaluated by testing the inhibitory effect on proliferation of HT-29 cells by the compounds of the present disclosure.
HT-29 (ATCC, HTB-38) cells were cultured in McCoy's 5a complete medium (Gibco, 12330-031) containing 10% fetal bovine serum (Gibco, 10099-141C), 100 U penicillin and […] streptomycin (Gibco, 15140-122). The Promega kit Cell Titer-Glo (Promega: G7572) was used in this method for test. • 1. HT-29 cells were cultured in T75 cell flasks (Corning, 430641) and the medium was placed in a 37° C., 5% CO2 incubator. Cells were passaged when reaching a cell density of 70%-80%, approximately twice per week. • 2. To perform the experiment, the test compounds were dissolved in DMSO to prepare a 10 mM stock solution, and the test compounds were added to the 384-well cell test plate (Corning, 3765) at the predetermined concentration using ECHO. • 3. The cell culture flask was taken out, the medium was removed, and the cells were rinsed with PBS. Then 2 mL of trypsin (with 0.25% EDTA) was added, and the flask was placed in the incubator for digestion for 4 minutes. • 4. Digestion was stopped by adding 4 mL of complete medium and the cell suspension was transferred to a centrifuge tube and centrifuged at 1000 rpm for 4 minutes. • 5. The cells were resuspended in 6 mL of complete medium, followed by cell counting. The cell density was adjusted to 4,170 cells/mL, and the cells were added to a 384-well plate at 60 μL/well. • 6. The 384-well plate was centrifuged at 500 rpm for 1 minute, and then placed in a 37° C., 5% CO2 incubator for 6 days of cultivation. • 7. Six days later, the cell culture plate was equilibrated for 10 minutes at room temperature, 25 μL of Cell Titer-Glo was added to each well, and the mixture was shaken and mixed well and let stand for 5 minutes. The luminescence values for samples in various wells were read using a microplate reader in Luminescence mode.
(§1) The percentage of inhibition of cell proliferation by the test compound at each concentration was calculated by comparing with the values of the control group (0.3% DMSO). The IC50 values of the compounds were obtained by concentration-inhibition rate nonlinear regression analysis of the test compounds using GraphPad Prism 9.

[2] = test system: OVCAR-3 cells; assay: OVCAR-3 cell proliferation (Cell Titer-Glo, 10 days); type: cell-based, human
Outline: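 400 cells per well were seeded onto pre-dispensed compound (final 0.12 nM to 10 μM) in RPMI-1640 with 20% FBS and insulin, then co-cultured for 10 days. Viability was read as Cell Titer-Glo luminescence, inhibition was taken against 0.1% DMSO control, and IC50 came from nonlinear concentration-inhibition regression.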

[3] = test system: HCT116 cells; assay: HCT116 cell anti-proliferation assay; type: cell-based; details: Homo sapiens, HCT-116, 144 h, 6 days, Cell Titer-Glo
Experimental: HCT116 (ATCC, CCL-247) cells were cultured in McCoy's 5a complete medium (Gibco, 12330-031) containing 10% fetal bovine serum (Gibco, 10099-141C), 100 U penicillin and 100 μg/mL streptomycin (Gibco, 15140-122). The Promega kit Cell Titer-Glo (Promega: G7572) was used in this method for test.
(§2) HCT116 cells were cultured in T75 cell flasks (Corning, 430641) and the cells were placed in a 37° C., 5% CO2 incubator. Cells were passaged when reaching a cell density of 70%-80%, approximately twice per week. To perform the experiment, the test compounds were dissolved in DMSO to prepare a 10 mM stock solution, and the test compounds were added to the 384-well cell test plate (Corning, 3765) at the predetermined concentration (19.5 nM-[…]) using ECHO. HCT1169 cells were digested and 150 cells (60 μL medium) were seeded per well in the test plate. The 384-well plate was then centrifuged at 500 rpm for 1 minute, and then placed in a 37° C., 5% CO2 incubator for 6 days of cultivation. Six days later, the cell culture plate was equilibrated for 10 minutes at room temperature, 25 μL of Cell Titer-Glo was added to each well, and the mixture was shaken and mixed well and let stand for 5 minutes. The luminescence values for samples in various wells were read using a microplate reader in Luminescence mode.
as §1, with “(0.2%” for “(0.3%”

[4] = test system: A2780 cells; assay: A2780 cell anti-proliferation assay; type: cell-based; details: Homo sapiens, A2780, 144 h, 6 days, Cell Titer-Glo
Experimental: A2780 (ECACC) cells were cultured in RPMI-1640 complete medium (Gibco, A1049101) containing 10% fetal bovine serum (Gibco, 10099-141C), 100 U penicillin and 100 μg/mL streptomycin (Gibco, 15140-122). The Promega kit Cell Titer-Glo (Promega: G7572) was used in this method for test.
as §2, with “A2780” for “HCT116”, “once every five days.” for “approximately twice per week.”, “A2780” for “HCT1169”, “4000” for “150”
as §1, with “inhibition of A2780 cell proliferation” for “inhibition of cell proliferation”, “control group (0.2% DMSO). The” for “control group (0.3% DMSO). The”

[5] = target: KIF18A (Homo sapiens (Human), UniProt Q8NI77); assay: KIF18A ATPase activity under tubulin stimulation (ADP-Glo assay); type: biochemical; details: KIF18A 30 nM, ATP 150 μM, pig microtubules
KIF18A, sequence (Q8NI77 whole entry): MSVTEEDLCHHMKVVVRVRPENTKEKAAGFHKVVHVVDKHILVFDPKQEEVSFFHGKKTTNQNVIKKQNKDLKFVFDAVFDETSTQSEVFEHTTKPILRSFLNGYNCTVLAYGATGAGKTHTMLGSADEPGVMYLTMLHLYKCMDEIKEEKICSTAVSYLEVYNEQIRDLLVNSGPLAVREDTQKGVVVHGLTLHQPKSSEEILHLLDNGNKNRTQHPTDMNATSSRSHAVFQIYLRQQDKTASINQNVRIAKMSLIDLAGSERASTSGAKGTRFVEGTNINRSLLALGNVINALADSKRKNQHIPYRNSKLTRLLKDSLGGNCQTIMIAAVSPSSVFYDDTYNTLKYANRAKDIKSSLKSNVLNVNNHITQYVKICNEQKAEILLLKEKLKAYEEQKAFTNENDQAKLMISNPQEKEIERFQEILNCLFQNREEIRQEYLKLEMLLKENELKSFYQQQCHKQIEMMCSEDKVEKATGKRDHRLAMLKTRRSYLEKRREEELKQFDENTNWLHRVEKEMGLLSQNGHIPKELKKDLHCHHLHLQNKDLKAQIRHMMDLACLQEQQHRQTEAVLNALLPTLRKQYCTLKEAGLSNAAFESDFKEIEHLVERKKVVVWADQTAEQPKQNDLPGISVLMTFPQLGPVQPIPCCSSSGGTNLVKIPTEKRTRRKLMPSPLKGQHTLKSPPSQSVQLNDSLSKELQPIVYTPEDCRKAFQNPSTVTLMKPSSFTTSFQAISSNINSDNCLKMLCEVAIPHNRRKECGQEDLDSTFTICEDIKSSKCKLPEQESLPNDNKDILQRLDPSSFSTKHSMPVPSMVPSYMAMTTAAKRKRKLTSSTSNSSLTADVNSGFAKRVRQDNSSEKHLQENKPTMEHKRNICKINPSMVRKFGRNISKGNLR
KIF18A, sequence (P02550 whole entry partner): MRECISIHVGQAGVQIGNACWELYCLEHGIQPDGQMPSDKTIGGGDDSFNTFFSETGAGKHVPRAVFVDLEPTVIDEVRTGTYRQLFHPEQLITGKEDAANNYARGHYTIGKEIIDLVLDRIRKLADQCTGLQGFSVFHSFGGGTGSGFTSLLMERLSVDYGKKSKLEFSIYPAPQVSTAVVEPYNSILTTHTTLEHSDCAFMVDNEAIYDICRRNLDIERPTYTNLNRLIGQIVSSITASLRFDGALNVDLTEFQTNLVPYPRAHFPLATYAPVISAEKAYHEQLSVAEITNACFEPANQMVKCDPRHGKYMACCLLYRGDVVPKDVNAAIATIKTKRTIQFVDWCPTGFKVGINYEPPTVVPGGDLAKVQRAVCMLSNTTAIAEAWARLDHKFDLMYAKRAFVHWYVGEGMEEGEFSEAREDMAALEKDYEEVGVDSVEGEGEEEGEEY
KIF18A, sequence (P02554 whole entry partner): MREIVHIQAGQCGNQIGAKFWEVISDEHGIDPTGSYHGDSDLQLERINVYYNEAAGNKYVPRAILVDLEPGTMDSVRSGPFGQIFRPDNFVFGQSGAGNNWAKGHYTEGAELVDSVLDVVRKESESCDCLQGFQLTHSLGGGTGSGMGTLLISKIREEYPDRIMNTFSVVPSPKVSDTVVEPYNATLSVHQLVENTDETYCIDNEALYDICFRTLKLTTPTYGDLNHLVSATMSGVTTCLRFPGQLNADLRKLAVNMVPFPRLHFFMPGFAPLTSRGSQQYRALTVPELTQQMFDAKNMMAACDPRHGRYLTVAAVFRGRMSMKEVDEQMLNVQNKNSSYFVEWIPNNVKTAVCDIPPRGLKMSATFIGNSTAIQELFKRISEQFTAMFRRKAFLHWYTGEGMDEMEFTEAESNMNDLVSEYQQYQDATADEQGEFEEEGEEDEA

[6] = test system: HCC1954 cells; assay: HCC1954 cell proliferation (Cell Titer-Glo, 6 days); type: cell-based; details: KIF18A-sensitive tumor cells
Experimental: (§3) The inhibitory effect on the KIF18A target by the compounds of the present disclosure was evaluated by testing the inhibitory effect on proliferation of HCC1954 and HCC1395 cells by the compounds of the present disclosure.
(§4) HCC1954 (ATCC, CRL-2388) and HCC1395 (ATCC, CRL-2324) cells were cultured separately in RPMI-1640 complete medium (Gibco, A1049101) containing 20% fetal bovine serum (Gibco, 10099141C), 100 U penicillin, and 100 μg/mL streptomycin (Gibco, 15140-122). The Promega kit Cell Titer-Glo (Promega: G7572) was used in this method for test. • 1. HCC1954 (KIF18A-sensitive tumor cells) and HCC1395 (KIF18A-insensitive tumor cells) were cultured separately in T75 cell culture flasks (Corning, 430641), and the medium was placed in a 37° C., 5% CO2 incubator. • 2. When the cell density reached 70% to 80% (about 2 to 3 times per week), cells are passaged with trypsin (0.25% EDTA). • 3. The cell culture flask was taken out and the cells were separated by adding 2 mL of trypsin (0.25% EDTA source) for 5 minutes. • 4. Digestion was stopped by adding 8 mL of RPM1-1640 medium and the cell suspension was transferred to a centrifuge tube and centrifuged at 1000 rpm for 5 minutes. • 5. The cells were resuspended with 5 mL of RPMI-1640 medium. Cell density was adjusted to 5×10^3/mL (HCC1954), and 2.5×10^4/mL (HCC1395), respectively. • 6. 40 μL of cell solution was added to the 384-well plate (Corning, 3765). • 7. The 384-well plate was centrifuged at 1000 rpm for 1 minute. • 8. The cells were cultured overnight in a 37° C., 5% CO2 incubator. • 9. The next day, 40 nL of compound solution was added to the 384-well plate using Echo650. The plate was then placed in a 37° C., 5% CO2 incubator for 6 days. • 10. After 6 days, 20 μL of Cell-Titer-Glo (Promega, G7572) reagent was added per well. • 11. Luminescence values were measured using the EnVision Xcite Multilabel Reader (PerkinElmer, 2105-0020).
as §1, with “(0.1%” for “(0.3%”

[7] = test system: HCC1395 cells; assay: HCC1395 cell proliferation (Cell Titer-Glo, 6 days); type: cell-based; details: KIF18A-insensitive tumor cells
Experimental: as §3, §4
as §1, with “(0.1%” for “(0.3%”

Structure (SMILES) | IC50 [1] [nM] | IC50 ([2]; Homo sapiens, OVCAR-3, 240 h) [nM] | IC50 [3] [nM] | IC50 [4] [nM] | IC50 [5] [nM] | IC50 ([6]; Homo sapiens, HCC1954, 144 h) [nM] | IC50 ([7]; Homo sapiens, HCC1395, 144 h) [nM] | IC50 [2] [nM] | IC50 [6] [nM] | IC50 [7] [nM]
COc1ccc(NC(=O)c2ccc(NS(=O)(=O)CCO)cc2N2CCC3(CC2)CC3)c2cc3n(c12)CCOC3 [Compound 404, 4-((2-hydroxyethyl)sulfonamido)-N-(6-methoxy-3,4-dihydro-1H-[1,4]oxazinyl[4,3-a]indol-9-yl)-2-(6-azaspiro[2.5]oct-6-yl)benzamide] | ≤ 200 | ≤ 50 | > 10000 | > 10000 | – | – | – | – | – | –
Cc1cc(NC(=O)c2c(N)cc(NS(=O)(=O)CCO)cc2N2CCC3(CC2)CC3)nc(N2CCC(F)(F)CC2)n1 [Example 3, 2-amino-N-(2-(4,4-difluoropiperidin-1-yl)-6-methylpyrimidin-4-yl)-4-(2-hydroxyethylsulfonamido)-6-(6-azaspiro[2.5]octan-6-yl)benzamide] | – | ≤ 50 | – | – | 50 to 500 | ≤ 10 | > 5000 | – | – | –
O=C(Nc1cccc2c1ccn2CC1CC1)c1ccc(NS(=O)(=O)CCO)cc1N1CCC2(CC1)CC2 [Example 9, N-(1-(cyclopropylmethyl)-1H-indole-4-(2-hydroxyethyl)sulfonamido)-2-(6-azaspiro[2.5]octan-6-yl)benzamide] | – | – | – | – | ≤ 50 | – | – | 50 to 500 | 10 to 500 | > 5000
O=C(Nc1cccc2c1cc(Cl)n2CC1CC1)c1ccc(NS(=O)(=O)CCO)cc1N1CCC2(CC1)CC2 [Example 13, N-(2-chloro-1-(cyclopropylmethyl)-1H-indol-4-yl)-4-((2-hydroxyethyl)sulfonamide)-2-(6-azaspiro[2.5]octan-6-yl)benzamide] | – | – | – | – | 50 to 500 | – | – | 50 to 500 | 10 to 500 | > 5000
O=C(Nc1cccc2c1ncn2CC1CC1)c1ccc(NS(=O)(=O)CCO)cc1N1CCC2(CC1)CC2 [Example 16] | – | – | – | – | ≤ 50 | – | – | 50 to 500 | 10 to 500 | > 5000
O=C(Nc1cccc2c1oc(=O)n2CC1CC1)c1ccc(NS(=O)(=O)CCO)cc1N1CCC2(CC1)CC2 [Example 18, N-(3-(cyclopropylmethyl)-2-oxo-2,3-dihydrobenzo[d]oxazol-7-yl)-4-((2-hydroxyethyl)sulfonamido)-2-(6-azaspiro[2.5]oct-6-yl)benzamide] | – | 50 to 500 | – | – | ≤ 50 | > 5000 | > 5000 | – | – | –
Nc1cc(NS(=O)(=O)CCO)cc(N2CCC3(CC2)CC3)c1C(=O)Nc1cccc2c1ccn2CC1CC1 [Example 41] | – | – | – | – | 50 to 500 | – | – | 50 to 500 | 10 to 500 | –
O=C(Nc1cc(F)cc2c1ccn2CC1CC1)c1ccc(NS(=O)(=O)CCO)cc1N1CCC2(CC1)CC2 [Example 50] | – | – | – | – | 50 to 500 | – | – | 50 to 500 | 10 to 500 | > 5000
O=C(Nc1ccc(F)c2c1ccn2CC1CC1)c1ccc(NS(=O)(=O)CCO)cc1N1CCC2(CC1)CC2 [Example 56, N-(1-(cyclopropylmethyl)-7-fluoro-1H-indol-4-yl)-4-((2-hydroxyethyl)sulfonamido)-2-(6-azaspiro[2.5]octan-6-yl)benzamide] | – | 50 to 500 | – | – | 50 to 500 | 10 to 500 | > 5000 | – | – | –
O=C(Nc1cccc2c1cc1n2CCC1)c1ccc(NS(=O)(=O)CCO)cc1N1CCC2(CC1)CC2 [Example 129, N-(2,3-dihydro-1H-pyrrolo[1,2-a]indol-8-yl)-4-((2-hydroxyethyl)sulfonamide)-2-(6-azaspiro[2.5]octan-6-yl)benzamide] | – | – | – | – | ≤ 50 | – | – | – | ≤ 10 | > 5000
CC1(C)Cc2nc3c(NC(=O)c4ccc(NS(=O)(=O)CCO)cc4N4CCC5(CC4)CC5)cccc3n2C1 [Example 490, N-(2,2-dimethyl-2,3-dihydro-1H-benzo[d]pyrrolo[1,2-a]imidazol-5-yl)-4-((2-hydroxyethyl)sulfonamido)-2-(6-azaspiro[2.5]oct-6-yl)benzamide] | – | 50 to 500 | – | – | 50 to 500 | 10 to 500 | – | – | – | –
